Measurements taken from EP0932613B1, “BLOCKING EXPRESSION OF VIRULENCE FACTORS IN S. AUREUS” (NEW YORK UNIVERSITY, priority 1996, dated 2005).
Where a SMILES comes first, the peptide text is derived from it. Bridges are numbered along the chain shown (N, C = ends).

Experiments:
RNAIII transcription [1] = assay: RNAIII transcription activation/inhibition assay (Ji et al. 1995), strain RN6390B; format: cell-based; settings: purified peptide; S. aureus strain RN6390B; Figure 3
Procedure: (§1) The purified activator peptide was then analyzed for its ability activate and inhibit RNAIII transcription of S. aureus strains RN6390B, RN6607 and RN8463, as described in Ji, G., et al. PNAS USA 92:12055-12059 (1995).
(§2) The purified peptide were then analyzed for their ability activate and inhibit RNAIII transcription of S. aureus strains RN6390B, RN6607 and RN8463, as described in Ji, G., et al. PNAS USA 92:12055-12059 (1995).

RNAIII transcription [2] = assay: RNAIII transcription activation/inhibition assay (Ji et al. 1995), strain RN6607; format: cell-based; settings: purified peptide; S. aureus strain RN6607; Figure 3
Procedure: as §1, §2

RNAIII transcription [3] = assay: RNAIII transcription activation/inhibition assay (Ji et al. 1995), strain RN8463; format: cell-based; settings: purified peptide; S. aureus strain RN8463; Figure 3
Procedure: as §1, §2

agr locus = settings: PNAS 92:12055-12059 (1995); cited from earlier work
RNAIII transcription [4] = assay: Effect of S. lugdunensis pheromone on RNAIII transcription of various S. aureus strains (Northern blot); format: cell-based; settings: 37°C for 30 minutes; strains grown to 60 Klett units for inhibition assays; Figures 4A and 4B
Procedure: The purified S. lugdunensis pheromone was then analyzed for its ability activate and inhibit RNAIII transcription of various S. aureus strains. S. aureus strains were grown to 30 Klett units (for activation assays) and to 60 Klett units (for inhibition assays). The purified S . lugdunensis pheromone was added and the mixtures were incubated at 37°C for 30 minutes. Whole cell lysates were prepared from these cultures and analyzed by Northern blot hybridization using a RN6390B RNAIII-specific probe.

Compound	effect on RNAIII transcription (RNAIII transcription [1])	effect on RNAIII transcription (RNAIII transcription [2])	effect on RNAIII transcription (RNAIII transcription [3])	expression of the agr locus (agr locus)	S. aureus strains tested in which the agr response is inhibited (RNAIII transcription [4])
CC[C@H](C)[C@@H]1NC(=O)[C@H](Cc2ccccc2)NC(=O)[C@H](CC(=O)O)NC(=O)[C@@H](NC(=O)[C@@H](NC(=O)[C@H](CO)NC(=O)[C@@H](N)Cc2ccc(O)cc2)[C@@H](C)O)CSC(=O)[C@H](CCSC)NC1=O [activator peptide, Tyr-Ser-Thr-Cys-Asp-Phe-Ile-Met] (H-YSTCDFIM; thioester 4-C)	activator effect	inhibitor effect	inhibitor effect	activate	
CC[C@H](C)[C@H](NC(=O)[C@@H](N)CC(=O)O)C(=O)N[C@H]1CSC(=O)[C@H](Cc2ccccc2)NC(=O)[C@H](Cc2ccc(O)cc2)NC(=O)[C@H](C)NC(=O)[C@H](CC(N)=O)NC1=O [S. lugdunensis pheromone, Asp-Ile-Cys-Asn-Ala-Tyr-Phe] (H-DICNAYF; thioester 3-C)					5 of 6
CC[C@H](C)[C@H](NC(=O)[C@@H](N)Cc1ccc(O)cc1)C(=O)N[C@@H](CC(N)=O)C(=O)N[C@H]1CSC(=O)[C@H](CC(C)C)NC(=O)[C@H](CC(C)C)NC(=O)[C@H](Cc2ccccc2)NC(=O)[C@H](CC(=O)O)NC1=O [peptide from RN8463, Tyr-Ile-Asn-Cys-Asp-Phe-Leu-Leu] (H-YINCDFLL; thioester 4-C)	inhibitor effect	inhibitor effect	activator effect		
CC(C)C[C@@H]1NC(=O)[C@H](CO)NC(=O)[C@H](CO)NC(=O)[C@@H](NC(=O)[C@H](C)NC(=O)[C@H](CC(N)=O)NC(=O)[C@@H](NC(=O)CN)C(C)C)CSC(=O)[C@H](Cc2ccccc2)NC1=O [peptide from RN6607, Gly-Val-Asn-Ala-Cys-Ser-Ser-Leu-Phe] (H-GVNACSSLF; thioester 5-C)	inhibitor effect	activator effect	inhibitor effect		
